Laboratory results: patent US20080089860A1, “Therapeutic compositions and methods useful in treating cancer” (priority 2006, published 2008)

What was measured:
PRL-3 = target: T1, PRL-3 (Homo sapiens, UniProt O75365); assay: In vitro PTPase assay, recombinant PRL-3; format: biochemical; conditions: for PRL-3 PTPase activity remaining: 0.1-100 μg/ml
T1 construct: made in house; host or cells: E. coli DH5a
Description: Sodium stibogluconate, suramin, sodium orthovanadate and GST fusion protein of SHP-1 have been described previously (Pathak et al., J. Imumol. 167, 3391 (2001)). Meglumine antimonate was obtained from Aventis. cDNAs of human PRL-1, PRL-2 and PRL-3 coding region were derived by RT-PCR from H9 cells (Safai, et al., Lancet 1, 1438 (1984)) and inserted in frame into the pGEX vector. cDNA of PRL-1R86 was generated by recombinant DNA technique using PRL-1 cDNA as template following established procedures (Jiao, et al., Mol. Cell. Biol. 16, 6985 (1996)). GST fusion proteins of the PRL phosphatases were prepared from DH5a bacteria transformed with the pGEX fusion protein constructs as described previously (Yi, et al., Mol. Cell. Biol. 12, 836 (1992)). cDNAs encoding the PRLs tagged at the N-termini with the Flag epitope (Castrucci, et al., J. Virol. 66, 4647 (1992)) were generated via recombinant DNA technique, sequenced to confirm their identities and cloned into the pBabepuro vector (Yang, et al., Blood 91, 3746 (1998)). Anti-Flag monoclonal antibody (M2, Sigma) was purchased from a commercial source. A synthetic phosphotyrosine peptide (Arg-Arg-Leu-Ile-Glu-Asp-Ala-Gle-Tyr-Al- -a-Ala-Arg-Gly (SEQ ID NO: 3), wherein the tyrosine is phosphorylated; UBI) and DiFMUP (6,8-difluoro-4-methylumbelliferyl phosphate, Molecular Probes) were purchased as substrates for PTPase assays.
In vitro PTPase assays were used to determine the effects of compounds on recombinant PTPases, following established procedures using a synthetic phosphotyrosine peptide or DiFMUP as the substrate (Pathak et al., J. Imumol. 167, 3391 (2001)). Briefly, individual PTPases (0.1 µg/reaction) in 50 µL of PTPase buffer (50 mM Tris, pH 7.4) were incubated at 22° C. for 10 minutes or as indicated in the absence or presence of inhibitory compounds. Substrates (0.2 mM phosphotyrosine peptide) were then added and allowed to react at 22° C. for 18 hrs. PTPase activity of individual reactions was measured by adding 100 µL of malachite green solution (UBI) and then quantifying the amounts of free phosphate cleaved by the PTPase from the peptide substrate by spectrometry (OD660 nm). PTPase assays using DiFMUP as a substrate were conducted following a previously described procedure (Matter, et al., Biochem. Biophys. Res. Comm. 283, 1061 (2001)). Relative PTPase activities were calculated based on the formula: (PTPase activity in the presence of an inhibitory compound/PTPase activity in the absence of the compound)× 100%. To assess the reversibility of PTPase inhibition, GST fusion proteins of the PTPases bound on glutathione beads (Pharmacia) were pre-incubated with cold Tris buffer (50 mM Tris, pH 7.0) or Tris buffer containing the inhibitor at 4° C. for 30 minutes. The beads were then washed three times in cold Tris buffer or not washed prior to subjecting to in vitro PTPase assays.

MKP1 = target: T2, MKP1 (Homo sapiens, UniProt P28562); assay: In vitro PTPase assay, GST/MKP1; format: biochemical; conditions: for inhibition of MKP1: section VII comparison
T2 construct: made in house; host or cells: E. coli DH5a
T2 sequence (P28562 13-367 limits assumed): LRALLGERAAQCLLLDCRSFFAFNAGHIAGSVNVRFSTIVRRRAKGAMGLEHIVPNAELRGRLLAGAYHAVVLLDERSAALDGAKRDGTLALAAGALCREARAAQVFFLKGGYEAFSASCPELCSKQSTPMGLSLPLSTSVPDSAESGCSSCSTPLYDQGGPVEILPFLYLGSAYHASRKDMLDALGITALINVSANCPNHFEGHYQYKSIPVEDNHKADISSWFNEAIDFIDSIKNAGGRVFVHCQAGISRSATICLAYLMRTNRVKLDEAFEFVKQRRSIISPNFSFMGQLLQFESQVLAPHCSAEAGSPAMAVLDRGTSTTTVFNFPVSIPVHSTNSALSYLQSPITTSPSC
Description: In vitro PTPase activities were measured using the commercial protein tyrosine phosphatase assay kit (Upstate Biotechnology, Inc. (“UBI”)) following established procedure known to one of skill in the art. This assay measures the in vitro dephosphorylation of a synthetic phosphotyrosine peptide of the sequence Arg-Arg-Leu-Ile-Glu-Asp-Ala-Gle-T- -yr-Ala-Ala-Arg-Gly, wherein the tyrosine is phosphorylated (SEQ ID NO: 3). Briefly, 0.01 µg of GST/PTPase fusion proteins was incubated in 50 µl of Tris buffer (10 mM Tris, pH 7.4) containing different concentrations of inhibitors or chemicals (0-1,000 µg/ml) at 22° C. for 10 minutes, followed by addition of 0.2 mM of the phosphotyrosine peptide and incubation at 22° C. for 18 hours. 100 µl of Malachite Green solution was added and incubated for 5 minutes, and the absorbance at 660 nm was measured after 5 minutes.
In vitro PTPase assays were used to determine the effects of levamisole (Sigma), pentamidine (American Pharmaceutical Partners, Inc.), and ketoconazole (Sigma) on recombinant PTPases, following established procedures (Pathak et al., J. Imumol. 167, 3391 (2001); Pathak et al., Leukemia 16, 2285 (2002), Yi et al., J. Immunol. 169, 5978 (2002)) using a synthetic phosphotyrosine peptide or DiFMUP as the substrate as detailed above in section I.A.2.

T1 sequence (O75365 whole entry): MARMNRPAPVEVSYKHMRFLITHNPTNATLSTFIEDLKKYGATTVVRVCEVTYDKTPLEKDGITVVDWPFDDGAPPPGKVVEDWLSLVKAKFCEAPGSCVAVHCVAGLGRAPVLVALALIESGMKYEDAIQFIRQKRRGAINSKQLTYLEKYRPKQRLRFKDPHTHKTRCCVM

Row | Structure (SMILES) | inhibition of PRL-3 after washing (PRL-3) | inactivation of PRL-3 (PRL-3; 10 μg/ml, pre-incubation 30 or 60 minutes) | inhibitory activity against MKP1 (MKP1) | inhibition of MKP1 (MKP1) | PRL-3 PTPase activity remaining (PRL-3)
1 | O.O.O.O.O.O.O.O.O.O=C([O-])[C@@H]1[O][Sb]2([O-])([O][Sb]34([OH])[O][C@H]([C@H](O)CO)[C@H]([O]3)[C@H](C(=O)[O-])[O]4)[O][C@H]([C@H](O)CO)[C@@H]1[O]2.[Na+].[Na+].[Na+] [sodium stibogluconate] | not relieved by a washing process | nearly complete inactivation | no obvious inhibitory activity | no obvious effects | –
2 | N=C(N)c1ccc(OCCCCCOc2ccc(C(=N)N)cc2)cc1 [pentamidine] | – | – | – | substantial inhibition | 20-30%
3 | CC(=O)N1CCN(c2ccc(OCC3COC(Cn4ccnc4)(c4ccc(Cl)cc4Cl)O3)cc2)CC1 (centres unmarked) [ketoconazole] | – | – | – | substantial inhibition | 25-40%
